One compound from publication PMC9148196 (The AAPS journal, 2021) can be followed below.

As usually defined, the pIC50 is −log10 of the IC50, conventionally taken in molar units.

pIC50: −log10 of the molar value.

The assay has as its target P-glycoprotein (P-gp, MDR1) (Homo sapiens, UniProt P08183). Briefly: basal-to-apical [3H]digoxin flux in MDCK-hMDR1-cMDR1-KO cells, dose-response. It is filed as cell-based.

Chain of P-glycoprotein (P-gp, MDR1) (P08183 whole entry): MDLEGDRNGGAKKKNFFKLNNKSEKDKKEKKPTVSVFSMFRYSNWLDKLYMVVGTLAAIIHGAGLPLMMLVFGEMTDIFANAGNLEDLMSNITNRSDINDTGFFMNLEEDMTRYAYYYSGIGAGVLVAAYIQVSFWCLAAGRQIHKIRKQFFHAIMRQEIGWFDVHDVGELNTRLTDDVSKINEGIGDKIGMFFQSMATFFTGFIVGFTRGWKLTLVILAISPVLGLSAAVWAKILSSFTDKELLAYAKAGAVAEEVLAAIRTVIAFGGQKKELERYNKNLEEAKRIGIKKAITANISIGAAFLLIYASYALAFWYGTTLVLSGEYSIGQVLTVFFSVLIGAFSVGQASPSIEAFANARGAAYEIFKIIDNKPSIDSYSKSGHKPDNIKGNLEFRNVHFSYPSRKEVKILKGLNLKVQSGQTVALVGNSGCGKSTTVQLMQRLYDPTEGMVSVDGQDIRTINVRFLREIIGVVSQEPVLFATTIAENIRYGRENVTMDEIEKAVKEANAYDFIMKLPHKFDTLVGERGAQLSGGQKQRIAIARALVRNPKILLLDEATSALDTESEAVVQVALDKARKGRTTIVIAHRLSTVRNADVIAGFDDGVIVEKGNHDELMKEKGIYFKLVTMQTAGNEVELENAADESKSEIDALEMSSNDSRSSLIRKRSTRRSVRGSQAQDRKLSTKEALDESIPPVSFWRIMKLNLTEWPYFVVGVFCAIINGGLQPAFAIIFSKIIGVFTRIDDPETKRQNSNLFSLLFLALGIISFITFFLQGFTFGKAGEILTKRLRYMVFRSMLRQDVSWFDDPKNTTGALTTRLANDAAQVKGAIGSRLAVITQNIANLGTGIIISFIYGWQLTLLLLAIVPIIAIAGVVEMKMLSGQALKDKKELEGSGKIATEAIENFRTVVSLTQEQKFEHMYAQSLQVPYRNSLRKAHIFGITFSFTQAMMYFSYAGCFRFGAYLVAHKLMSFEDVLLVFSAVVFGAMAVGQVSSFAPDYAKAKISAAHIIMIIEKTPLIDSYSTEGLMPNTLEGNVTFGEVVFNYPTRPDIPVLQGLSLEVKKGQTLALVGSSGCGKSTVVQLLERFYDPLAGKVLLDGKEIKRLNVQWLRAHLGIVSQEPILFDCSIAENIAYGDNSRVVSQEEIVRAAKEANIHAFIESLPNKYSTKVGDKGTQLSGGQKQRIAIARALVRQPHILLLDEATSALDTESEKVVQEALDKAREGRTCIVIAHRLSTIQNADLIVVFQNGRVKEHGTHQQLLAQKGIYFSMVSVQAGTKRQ

As for `CCN(Cc1cccc(S(=O)(=O)O)c1)c1ccc(C(=C2C=CC(=[N+](CC)Cc3cccc(S(=O)(=O)[O-])c3)C=C2)c2ccc(S(=O)(=O)O)cc2)cc1` [Light green SF yellowish], the pIC50 is 3.69.
